Data: patent US20100041089A1, “IMPROVED METHOD FOR DETECTING CHEMICAL […]” (priority 2006, published 2010)

Tested on: yeast genes (expressed mRNA)
Test: DNA chip measurement of expressed mRNA of yeast genes after culture with a toxic chemical substance
Format: cell-based, Saccharomyces cerevisiae S288C
Conditions: for level of expressed mRNA in the presence of chemical substance / level in the absence of chemical substance: cultured two hours with the chemical substance; for The level of expressed mRNA in the presence of chemical substance/The level of expressed mRNA in the absence of chemical substance: cultured two hours with substance
How it was run: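 S. cerevisiae S288C grown at 25 °C in YPD, exposed in log phase for 2 h to a toxicant at growth-inhibiting, non-lethal concentration. Cy3/Cy5-labelled cDNA from poly(A) mRNA hybridized to whole-genome chip at 65 °C >12 h. Ratio to untreated control, ≥2 significant.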

Cl[C@H]1[C@H](Cl)[C@@H](Cl)[C@@H](Cl)[C@H](Cl)[C@H]1Cl [(7), γ-Hexachlorocyclohexane]
The level of expressed mRNA in the presence of chemical substance/The level of expressed mRNA in the absence of chemical substance, yeast gene YBR036C (gene YBR036C, Metabolism protein genes, DNA chip fluorescence ratio): 1.3 | The level of expressed mRNA in the presence of chemical substance/The level of expressed mRNA in the absence of chemical substance, yeast gene YBR298C (gene YBR298C, Metabolism protein genes, DNA chip fluorescence ratio): 1.7 | The level of expressed mRNA in the presence of chemical substance/The level of expressed mRNA in the absence of chemical substance, yeast gene YDL067C (gene YDL067C (mitochondria-located protein gene), yeast cultured two hours with chemical substance, DNA chip fluorescence ratio to control): 0.8 | The level of expressed mRNA in the presence of chemical substance/The level of expressed mRNA in the absence of chemical substance, yeast gene YDL078C (gene YDL078C, Metabolism protein genes, DNA chip fluorescence ratio): 1.7 | The level of expressed mRNA in the presence of chemical substance/The level of expressed mRNA in the absence of chemical substance, yeast gene YDL215C (gene YDL215C, Metabolism protein genes, DNA chip fluorescence ratio): 1.9 | The level of expressed mRNA in the presence of chemical substance/The level of expressed mRNA in the absence of chemical substance, yeast gene YDR079W (gene YDR079W (mitochondria-located protein gene), yeast cultured two hours with chemical substance, DNA chip fluorescence ratio to control): 1.3 | The level of expressed mRNA in the presence of chemical substance/The level of expressed mRNA in the absence of chemical substance, yeast gene YDR297W (gene YDR297W, Metabolism protein genes, DNA chip fluorescence ratio): 0.6 | The level of expressed mRNA in the presence of chemical substance/The level of expressed mRNA in the absence of chemical substance, yeast gene YDR387C (gene YDR387C, Metabolism protein genes, DNA chip fluorescence ratio): 1.3 | The level of expressed mRNA in the presence of chemical substance/The level of expressed mRNA in the absence of chemical substance, yeast gene YGL035C (gene YGL035C, Metabolism protein genes, DNA chip fluorescence ratio): 1.2 | The level of expressed mRNA in the presence of chemical substance/The level of expressed mRNA in the absence of chemical substance, yeast gene YGR062C (gene YGR062C (mitochondria-located protein gene), yeast cultured two hours with chemical substance, DNA chip fluorescence ratio to control): 1.3 | The level of expressed mRNA in the presence of chemical substance/The level of expressed mRNA in the absence of chemical substance, yeast gene YGR287C (gene YGR287C, Metabolism protein genes, DNA chip fluorescence ratio): 2.2 | The level of expressed mRNA in the presence of chemical substance/The level of expressed mRNA in the absence of chemical substance, yeast gene YJL070C (gene YJL070C, Metabolism protein genes, DNA chip fluorescence ratio): 1.4 | The level of expressed mRNA in the presence of chemical substance/The level of expressed mRNA in the absence of chemical substance, yeast gene YJL096W (gene YJL096W (mitochondria-located protein gene), yeast cultured two hours with chemical substance, DNA chip fluorescence ratio to control): 1.7 | The level of expressed mRNA in the presence of chemical substance/The level of expressed mRNA in the absence of chemical substance, yeast gene YJL180C (gene YJL180C (mitochondria-located protein gene), yeast cultured two hours with chemical substance, DNA chip fluorescence ratio to control): 1.6 | The level of expressed mRNA in the presence of chemical substance/The level of expressed mRNA in the absence of chemical substance, yeast gene YKR009C (gene YKR009C, Metabolism protein genes, DNA chip fluorescence ratio): 1.0 | The level of expressed mRNA in the presence of chemical substance/The level of expressed mRNA in the absence of chemical substance, yeast gene YLR295C (gene YLR295C (mitochondria-located protein gene), yeast cultured two hours with chemical substance, DNA chip fluorescence ratio to control): 1.1 | The level of expressed mRNA in the presence of chemical substance/The level of expressed mRNA in the absence of chemical substance, yeast gene YLR351C (gene YLR351C, Metabolism protein genes, DNA chip fluorescence ratio): 1.4 | The level of expressed mRNA in the presence of chemical substance/The level of expressed mRNA in the absence of chemical substance, yeast gene YLR375W (gene YLR375W, Metabolism protein genes, DNA chip fluorescence ratio): 0.9 | The level of expressed mRNA in the presence of chemical substance/The level of expressed mRNA in the absence of chemical substance, yeast gene YMR023C (gene YMR023C (mitochondria-located protein gene), yeast cultured two hours with chemical substance, DNA chip fluorescence ratio to control): 1.9 | The level of expressed mRNA in the presence of chemical substance/The level of expressed mRNA in the absence of chemical substance, yeast gene YMR267W (gene YMR267W (mitochondria-located protein gene), yeast cultured two hours with chemical substance, DNA chip fluorescence ratio to control): 1.2 | The level of expressed mRNA in the presence of chemical substance/The level of expressed mRNA in the absence of chemical substance, yeast gene YMR267W (gene YMR267W, Metabolism protein genes, DNA chip fluorescence ratio): 1.2 | The level of expressed mRNA in the presence of chemical substance/The level of expressed mRNA in the absence of chemical substance, yeast gene YMR278W (gene YMR278W, Metabolism protein genes, DNA chip fluorescence ratio): 1.8 | The level of expressed mRNA in the presence of chemical substance/The level of expressed mRNA in the absence of chemical substance, yeast gene YMR293C (gene YMR293C, Metabolism protein genes, DNA chip fluorescence ratio): 1.2 | The level of expressed mRNA in the presence of chemical substance/The level of expressed mRNA in the absence of chemical substance, yeast gene YNL073W (gene YNL073W (mitochondria-located protein gene), yeast cultured two hours with chemical substance, DNA chip fluorescence ratio to control): 1.1 | The level of expressed mRNA in the presence of chemical substance/The level of expressed mRNA in the absence of chemical substance, yeast gene YNR072W (gene YNR072W, Metabolism protein genes, DNA chip fluorescence ratio): 1.5 | The level of expressed mRNA in the presence of chemical substance/The level of expressed mRNA in the absence of chemical substance, yeast gene YOL096C (gene YOL096C, Metabolism protein genes, DNA chip fluorescence ratio): 1.7 | The level of expressed mRNA in the presence of chemical substance/The level of expressed mRNA in the absence of chemical substance, yeast gene YOR180C (gene YOR180C, Metabolism protein genes, DNA chip fluorescence ratio): 0.8 | The level of expressed mRNA in the presence of chemical substance/The level of expressed mRNA in the absence of chemical substance, yeast gene YOR316C (gene YOR316C (mitochondria-located protein gene), yeast cultured two hours with chemical substance, DNA chip fluorescence ratio to control): 1.4 | The level of expressed mRNA in the presence of chemical substance/The level of expressed mRNA in the absence of chemical substance, yeast gene YOR363C (gene YOR363C, Metabolism protein genes, DNA chip fluorescence ratio): 0.7 | The level of expressed mRNA in the presence of chemical substance/The level of expressed mRNA in the absence of chemical substance, yeast gene YPL040C (gene YPL040C (mitochondria-located protein gene), yeast cultured two hours with chemical substance, DNA chip fluorescence ratio to control): 0.8 | The level of expressed mRNA in the presence of chemical substance/The level of expressed mRNA in the absence of chemical substance, yeast gene YPL134C (gene YPL134C (mitochondria-located protein gene), yeast cultured two hours with chemical substance, DNA chip fluorescence ratio to control): 1.2 | The level of expressed mRNA in the presence of chemical substance/The level of expressed mRNA in the absence of chemical substance, yeast gene YPR184W (gene YPR184W, Metabolism protein genes, DNA chip fluorescence ratio): 1.3 | level of expressed mRNA in the presence of chemical substance / level in the absence of chemical substance (yeast gene YAL018C): 1.0 | The level of expressed mRNA in the presence of chemical substance/The level of expressed mRNA in the absence of chemical substance (yeast gene YAL053W): 0.7 | level of expressed mRNA in the presence of chemical substance / level in the absence of chemical substance (yeast gene YAR047C): 1.2 | level of expressed mRNA in the presence of chemical substance / level in the absence of chemical substance (yeast gene YAR064W): 1.1 | level of expressed mRNA in the presence of chemical substance / level in the absence of chemical substance (yeast gene YBL044W): 1.1 | The level of expressed mRNA in the presence of chemical substance/The level of expressed mRNA in the absence of chemical substance (yeast gene YBL048W): 1.9 | The level of expressed mRNA in the presence of chemical substance/The level of expressed mRNA in the absence of chemical substance (yeast gene YBL107C): 2.1 | level of expressed mRNA in the presence of chemical substance / level in the absence of chemical substance (yeast gene YBR012C): 1.5 | level of expressed mRNA in the presence of chemical substance / level in the absence of chemical substance (yeast gene YBR066C): 1.3 | level of expressed mRNA in the presence of chemical substance / level in the absence of chemical substance (yeast gene YBR124W): 1.1 | level of expressed mRNA in the presence of chemical substance / level in the absence of chemical substance (yeast gene YBR162C): 0.3 | level of expressed mRNA in the presence of chemical substance / level in the absence of chemical substance (yeast gene YBR287W): 1.1 | level of expressed mRNA in the presence of chemical substance / level in the absence of chemical substance (yeast gene YCL056C): 1.6 | level of expressed mRNA in the presence of chemical substance / level in the absence of chemical substance (yeast gene YCR007C): 2.0 | level of expressed mRNA in the presence of chemical substance / level in the absence of chemical substance (yeast gene YDL046W): 1.2 | The level of expressed mRNA in the presence of chemical substance/The level of expressed mRNA in the absence of chemical substance (yeast gene YDL072C): 1.8 | The level of expressed mRNA in the presence of chemical substance/The level of expressed mRNA in the absence of chemical substance (yeast gene YDL204W): 3.2 | The level of expressed mRNA in the presence of chemical substance/The level of expressed mRNA in the absence of chemical substance (yeast gene YDL222C): 1.0 | level of expressed mRNA in the presence of chemical substance / level in the absence of chemical substance (yeast gene YDR090C): 1.5 | level of expressed mRNA in the presence of chemical substance / level in the absence of chemical substance (yeast gene YDR128W): 0.8
